Like-named read-outs stand apart in the source and are kept apart here.
Experiments:
[1] = test system: p-IKKa levels in L363 (NIK translocated multiple myeloma) cells; assay: Effect of compounds on p-IKKa levels in L363 (NIK translocated multiple myeloma) cells (AlphaLISA SureFire Ultra p-IKKa Ser176/180); format: cell-based, human; details: average if tested more than once, read-out: Assay 2 IC50
Summary of the method: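 Phospho-IKKa (Ser176/180) in lysates quantified by AlphaLISA after 6 h compound exposure, 11-point threefold dilutions, 0.3% DMSO. L363 cells were pre-stimulated overnight and assayed with 250 ng/ml BAFF and 10 μM MG132; % inhibition fitted sigmoidally for IC50, duplicate curves.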

[2] = biological target: Recombinant Human NF-kappaB-Inducing Kinase (NIK/MAP3K14) (Homo sapiens, UniProt Q99558); assay: Inhibition of auto-phosphorylation of recombinant human NIK/MAP3K14 activity (AlphaScreen); format: biochemical; details: 5 μM ATP, 1 nM NIK, average if tested more than once
Summary of the method: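 AlphaScreen detection of phospho-Ser176/180 after 1 nM GST-NIK auto-phosphorylates for 2 h at 25 °C with 5 μM ATP (50 mM Tris pH 7.5, 0.7% DMSO). IC50s come from sigmoidal curves of % inhibition against log dose, using enzyme-free, ATP-free low controls and full-activity high controls.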

[3] = Homo sapiens, L-363, p-IKKa levels in L363 cells

Recombinant Human NF-kappaB-Inducing Kinase (NIK/MAP3K14), sequence (Q99558 whole entry): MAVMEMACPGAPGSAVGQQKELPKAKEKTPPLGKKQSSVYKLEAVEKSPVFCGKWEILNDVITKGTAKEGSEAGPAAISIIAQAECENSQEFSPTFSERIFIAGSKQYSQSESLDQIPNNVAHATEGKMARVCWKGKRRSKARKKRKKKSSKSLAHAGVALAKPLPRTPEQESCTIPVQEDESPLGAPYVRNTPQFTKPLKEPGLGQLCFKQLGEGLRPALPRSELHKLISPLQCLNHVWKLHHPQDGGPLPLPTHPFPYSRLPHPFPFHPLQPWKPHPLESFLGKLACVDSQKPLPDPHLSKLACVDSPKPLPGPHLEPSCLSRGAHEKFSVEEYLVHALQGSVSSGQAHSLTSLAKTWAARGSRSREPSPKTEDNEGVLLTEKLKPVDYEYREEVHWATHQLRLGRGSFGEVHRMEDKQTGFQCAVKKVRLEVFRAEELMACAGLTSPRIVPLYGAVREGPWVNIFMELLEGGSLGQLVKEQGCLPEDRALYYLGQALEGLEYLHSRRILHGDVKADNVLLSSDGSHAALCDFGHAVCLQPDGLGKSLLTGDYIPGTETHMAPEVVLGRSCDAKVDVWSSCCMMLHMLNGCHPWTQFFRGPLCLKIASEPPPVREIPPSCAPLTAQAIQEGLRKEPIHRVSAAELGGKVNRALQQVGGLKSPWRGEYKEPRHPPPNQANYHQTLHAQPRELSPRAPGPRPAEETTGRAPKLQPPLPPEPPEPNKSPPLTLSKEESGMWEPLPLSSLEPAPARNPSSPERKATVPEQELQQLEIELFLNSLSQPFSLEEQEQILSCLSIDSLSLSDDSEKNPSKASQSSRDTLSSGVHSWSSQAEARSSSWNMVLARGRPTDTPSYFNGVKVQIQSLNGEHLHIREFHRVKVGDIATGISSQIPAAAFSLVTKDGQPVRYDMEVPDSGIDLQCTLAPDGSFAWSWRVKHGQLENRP

Row | SMILES | IC50 [1, 3] | IC50 [2] | IC50 ([1]; p-IKKa levels in L363 cells)
1 | CN1CC[C@@](O)(c2cccc(-c3nc(-c4ccnc(Nc5ccn(-c6ccccc6)n5)n4)cs3)c2)C1=O [Example 284, (R)-3-hydroxy-1-methyl-3-(3-(4-(2-((1-phenyl-1H-pyrazol-3-yl)amino)pyrimidin-4-yl)thiazol-2-yl)phenyl)pyrrolidin-2-one] | 100 to 500 nM | < 100 nM | 
2 | CN1C[C@H](Nc2nccc(-c3csc(-c4cccc([C@]5(O)CCN(C)C5=O)c4)n3)n2)CC1=O (single isomer, unassigned) [Example 234] | > 501 nM | 100 to 500 nM | 
3 | CN1CC[C@@](O)(c2cccc(-c3nc(-c4ccnc(NCCNS(C)(=O)=O)n4)cs3)c2)C1=O [Example 237] | > 501 nM | < 100 nM | 
4 | CCn1ccc(Nc2nccc(-c3csc(-c4cccc([C@]5(O)CCN(C)C5=O)c4)n3)n2)n1 [Example 76, (R)-3-(3-(4-(2-((1-ethyl-1H-pyrazol-3-yl)amino)pyrimidin-4-yl)thiazol-2-yl)phenyl)-3-hydroxy-1-methylpyrrolidin-2-one] | 100 to 500 nM | < 100 nM | 
5 | CN1CC[C@@](O)(c2cccc(-c3nc(-c4ccnc(N[C@@H]5[C@@H]6COC[C@@H]65)n4)cs3)c2)C1=O [Example 214] | > 501 nM | 100 to 500 nM | 
6 | Cc1nccc(Nc2nccc(-c3csc(-c4cccc([C@]5(O)CCN(C)C5=O)c4)n3)n2)n1 [Example 159, (R)-3-Hydroxy-1-methyl-3-(3-(4-(2-((2-methylpyrimidin-4-yl)amino)pyrimidin-4-yl)thiazol-2-yl)phenyl)pyrrolidin-2-one] | > 501 nM | < 100 nM | 
7 | C[C@H](Nc1nccc(-c2nc(-c3cccc([C@]4(O)CCN(C)C4=O)c3)cs2)n1)c1ccnn1C (single isomer, unassigned) [Example 126] | 100 to 500 nM | < 100 nM | 
8 | CN1CC[C@@](O)(c2cccc(-c3nc(-c4ccnc(Nc5cccc(OC(F)(F)F)n5)n4)cs3)c2)C1=O [Example 167, (R)-3-Hydroxy-1-methyl-3-(3-(4-(2-((6-(trifluoromethoxy)pyridin-2-yl)amino)pyrimidin-4-yl)thiazol-2-yl)phenyl)pyrrolidin-2-one] | > 501 nM | < 100 nM | 
9 | Cc1cnc(CNc2nccc(-c3csc(-c4cccc([C@]5(O)CCN(C)C5=O)c4)n3)n2)o1 [Example 200] | > 501 nM | < 100 nM | 
10 | CC(Nc1nccc(-c2nc(-c3cccc(C4(O)CCN(C)C4=O)c3)cs2)n1)c1cnn(C)c1 (single isomer, unassigned) [Example 40] |  | < 100 nM | > 501 nM
11 | CN1CC[C@@](O)(c2cccc(-c3nc(-c4ccnc(Nc5cnn(C6CC6)c5)n4)cs3)c2)C1=O [Example 263, (R)-3-(3-(4-(2-((1-Cyclopropyl-1H-pyrazol-4-yl)amino)pyrimidin-4-yl)thiazol-2-yl)phenyl)-3-hydroxy-1-methylpyrrolidin-2-one] | 100 to 500 nM | < 100 nM | 
12 | Cc1cccc(CNc2nccc(-c3csc(-c4cccc([C@]5(O)CCN(C)C5=O)c4)n3)n2)n1 [Example 205] | > 501 nM | < 100 nM | 
13 | CN1CC[C@@](O)(c2cccc(-c3nc(-c4ccnc(Nc5cc(C(F)(F)F)nn5C)n4)cs3)c2)C1=O [Example 281, (R)-3-Hydroxy-1-methyl-3-(3-(4-(2-((1-methyl-3-(trifluoromethyl)-1H-pyrazol-5-yl)amino)pyrimidin-4-yl)thiazol-2-yl)phenyl)pyrrolidin-2-one] | > 501 nM | < 100 nM | 
14 | CN1CC[C@@](O)(c2cccc(-c3nc(-c4ccnc(NC[C@@H]5CCCO5)n4)cs3)c2)C1=O [Example 122, (R)-3-hydroxy-1-methyl-3-(3-(4-(2-((((S)-tetrahydrofuran-2-yl)methyl)amino)pyrimidin-4-yl)thiazol-2-yl)phenyl)pyrrolidin-2-one] | > 501 nM | < 100 nM | 
15 | CN1CC[C@@](O)(c2cccc(-c3nc(-c4ccnc(N[C@H]5CCC[C@H](O)C5)n4)cs3)c2)C1=O [Example 254] | > 501 nM | 100 to 500 nM | 
16 | CN1CCC(O)(c2cncc(-c3csc(-c4ccnc(Nc5ccnn5C)n4)n3)c2)C1=O (single isomer, unassigned) [Example 46, (R)-3-Hydroxy-1-methyl-3-(5-(2-(2-((1-methyl-1H-pyrazol-5-yl)amino)pyrimidin-4-yl)thiazol-4-yl)pyridin-3-yl)pyrrolidin-2-one or (S)-3-hydroxy-1-methyl-3-(5-(2-(2-((1-methyl-1H-pyrazol-5-yl)amino)pyrimidin-4-yl)thiazol-4-yl)pyridin-3-yl)pyrrolidin-2-one] | < 100 nM | < 100 nM | 
17 | CN1CC[C@@](O)(c2cccc(-c3ccn(-c4ccnc(Nc5cnn(C)c5)n4)n3)c2)C1=O [Example 90, (R)-3-hydroxy-1-methyl-3-(3-(1-(2-((1-methyl-1H-pyrazol-4-yl)amino)pyrimidin-4-yl)-1H-pyrazol-3-yl)phenyl)pyrrolidin-2-one] | 100 to 500 nM | < 100 nM | 
18 | Cc1nn(C)cc1CNc1nccc(-c2csc(-c3cccc([C@]4(O)CCN(C)C4=O)c3)n2)n1 [Example 210] | > 501 nM | < 100 nM | 
19 | CC(Nc1nccc(-c2csc(-c3cccc([C@]4(O)CCN(C)C4=O)c3)n2)n1)c1cnn(C)c1 (stereo partly drawn) [Example 121, (R)-3-hydroxy-1-methyl-3-(3-(4-(2-(((R,S)-1-(1-methyl-1H-pyrazol-4-yl)ethyl)amino)pyrimidin-4-yl)thiazol-2-yl)phenyl)pyrrolidin-2-one] | 100 to 500 nM | < 100 nM | 
20 | CN1CC[C@@](O)(c2cccc(-c3nc(-c4ccnc(Nc5cnn(C)c5)n4)cs3)c2)C1=O [Example 177] | < 100 nM | < 100 nM | 
21 | CN1CCO[C@@H](CNc2nccc(-c3csc(-c4cccc([C@]5(O)CCN(C)C5=O)c4)n3)n2)C1 [Example 213] | > 501 nM | > 501 nM | 
22 | CN1CC[C@@](O)(c2cccc(-c3nc(-c4ccnc(NCc5cn(C)cn5)n4)cs3)c2)C1=O [Example 196] | > 501 nM | 100 to 500 nM | 
23 | CN1CC[C@@](O)(c2cccc(-c3nc(-c4ccnc(NCC5(O)CC5)n4)cs3)c2)C1=O [Example 240] | > 501 nM | 100 to 500 nM | 
24 | CN1CC[C@@](O)(c2cccc(-c3nc(-c4ccnc(N[C@@H]5CCCc6cn[nH]c65)n4)cs3)c2)C1=O (single isomer, unassigned) [Example 135] | > 501 nM | > 501 nM | 
25 | CCc1cc(Nc2nccc(-c3csc(-c4cccc([C@]5(O)CCN(C)C5=O)c4)n3)n2)ncn1 [Example 70, (R)-3-(3-(4-(2-((6-ethylpyrimidin-4-yl)amino)pyrimidin-4-yl)thiazol-2-yl)phenyl)-3-hydroxy-1-methylpyrrolidin-2-one] | > 501 nM | < 100 nM | 
26 | COC[C@@H](Nc1nccc(-c2nc(-c3cccc([C@]4(O)CCN(C)C4=O)c3)cs2)n1)c1ccnn1C (single isomer, unassigned) [Example 130] | 100 to 500 nM | < 100 nM | 

Source: patent US20250304567A1, “PYRROLIDIONE DERIVATIVES AS INHIBITORS OF NF KAPPA B INDUCING KINASE” (priority 2022, published 2025)
